From BigSolDB 2.1

N#Cc1cccnc1
solubility (mole fraction)
Conditions	in acetone	in ethanol	in ethyl acetate	in isobutanol	in methanol	in n-butanol	in n-propanol	in tetrachloromethane
268.15 K	0.247	0.0429	0.209	0.028	0.0877	0.025	0.0434	0.0098
273.15 K	0.29	0.0593	0.247	0.0396	0.111	0.0393	0.0658	0.0152
278.15 K	0.329	0.0903	0.282	0.0702	0.153	0.0645	0.0976	0.024
288.15 K	0.438	0.201	0.375	0.17	0.267	0.164	0.214	0.095
298.15 K	0.541	0.339	0.478	0.3	0.404	0.275	0.348	0.239
308.15 K	0.664	0.491	0.63	0.435	0.541	0.427	0.5	0.393
318.15 K	0.833	0.627	0.803	0.6	0.726	0.577	0.643	0.568

N#Cc1ccncc1
solubility (mole fraction)
Conditions	in acetone	in ethanol	in ethyl acetate	in isobutanol	in methanol	in n-butanol	in n-propanol	in tetrachloromethane
268.15 K	0.117	0.0065	0.106	0.0133	0.0245	0.0141	0.0246	0.0129
273.15 K	0.134	0.016	0.121	0.0176	0.0302	0.0149	0.0271	0.0194
278.15 K	0.155	0.0179	0.142	0.0229	0.0361	0.0216	0.0396	0.0292
288.15 K	0.213	0.0367	0.203	0.0469	0.062	0.0471	0.07	0.0396
298.15 K	0.275	0.0706	0.261	0.108	0.0954	0.0898	0.129	0.0839
308.15 K	0.356	0.136	0.343	0.172	0.173	0.151	0.19	0.151
318.15 K	0.46	0.273	0.437	0.304	0.304	0.284	0.298	0.287
